The values that follow come from publication PMC7719162, “Positioning of an unprecedented spiro[5.5]undeca ring system into kinase inhibitor space” (Scientific Reports, 2020).

In one data set the test system is BV-2 cells. As to the kind of experiment: MTT cell viability assay. The format is cell-based, murine. To be noted: 5 μM compound, % of LPS, mean ± SD. Here is the method:
(§1) 3-(4,5-dimethylthiazol-2-yl)-2,5-diphenyl-tetrazolium bromide (MTT) assay was performed to evaluate the cytotoxicity of the samples to the microglia. BV2 cells at the density of 4 × 10^4 cells /well were seeded in the 96 well plate and incubated for 24 h. Seeded cells were pre-treated with different concentration of the samples, and LPS (100 ng/ml) activation was performed after 30 min of compound treatment. Treated plate were incubated for 24 h in the incubator and nitric oxide assay and cell viability assay was performed. Treated cell’s conditioned medium was used to evaluate the NO assay, and the attached cells were used to evaluate the cell viability assay. 50 µL of conditioned medium (CM) from treated cells were transferred to a new 96 well plate for NO assay. This CM was mixed with the equal volume of the mixture of Gries reagent ((1% sulfanilamide and 0.1% N-1-napthylethylenediamine dihydrochloride). NaNO2 was used as standard and the colorimetric change were evidenced by measuring its OD at 540 nm in a microplate reader. The cells in the plate were incubated for 1 h with MTT solution making it the final concentration of […]. Blue stained cells were incubated with 200 ul of DMSO and the solution get changed to purple/formazan color and it was observed by measuring the absorbance at 570 nm in a microplate reader.NG-mono-methyl-L-arginine (L-NMMA), a well-known nitric oxide synthase (NOS) inhibitor, was used as a positive control.

The target in a further data set is T1, RIPK5 (Homo sapiens, UniProt Q6XUX3).
T1 construct: purchased Reaction Biology Corp
T1 sequence (Q6XUX3 1-929): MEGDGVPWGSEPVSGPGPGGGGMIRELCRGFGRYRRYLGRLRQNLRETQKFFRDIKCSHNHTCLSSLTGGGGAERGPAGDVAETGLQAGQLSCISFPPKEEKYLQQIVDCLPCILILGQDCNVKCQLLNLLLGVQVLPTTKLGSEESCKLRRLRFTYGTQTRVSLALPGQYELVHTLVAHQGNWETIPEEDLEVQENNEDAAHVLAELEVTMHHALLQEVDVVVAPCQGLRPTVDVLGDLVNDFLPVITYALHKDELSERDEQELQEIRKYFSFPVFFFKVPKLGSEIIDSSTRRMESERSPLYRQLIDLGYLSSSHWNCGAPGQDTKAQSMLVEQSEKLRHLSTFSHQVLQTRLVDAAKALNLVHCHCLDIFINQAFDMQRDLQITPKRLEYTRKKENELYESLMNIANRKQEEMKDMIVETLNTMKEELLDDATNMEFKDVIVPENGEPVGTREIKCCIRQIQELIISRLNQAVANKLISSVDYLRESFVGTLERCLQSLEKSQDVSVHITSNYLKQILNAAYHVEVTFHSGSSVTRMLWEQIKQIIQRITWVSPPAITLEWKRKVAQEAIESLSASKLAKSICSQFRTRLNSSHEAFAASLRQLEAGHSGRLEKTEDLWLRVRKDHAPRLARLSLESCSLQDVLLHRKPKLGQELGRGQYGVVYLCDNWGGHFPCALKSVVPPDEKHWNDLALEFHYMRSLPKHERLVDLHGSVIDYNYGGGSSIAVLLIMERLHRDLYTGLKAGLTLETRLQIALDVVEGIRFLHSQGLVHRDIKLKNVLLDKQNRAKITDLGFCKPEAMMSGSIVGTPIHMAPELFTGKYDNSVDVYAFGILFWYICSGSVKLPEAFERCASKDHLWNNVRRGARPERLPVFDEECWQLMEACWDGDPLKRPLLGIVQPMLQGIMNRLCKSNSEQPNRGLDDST
To be noted: cited from earlier work.

Data set [1] concerns the target T2, AMPK(A1/B1/G3) (Homo sapiens, UniProt Q13131).
T2 construct: purchased Reaction Biology Corp
Put plainly: Kinase panel assay (radiolabelled). Type of data set: biochemical. The following applies: 30 μM compound, ATP 10 μM; duplicates Data 1/Data 2.

The target of data set [2] is T3, AMPK(A1/B1/G3) (Homo sapiens, UniProt Q13131+Q9UGI9+Q9Y478).
T3 construct: purchased Reaction Biology Corp
T3 sequence (Q13131 whole entry): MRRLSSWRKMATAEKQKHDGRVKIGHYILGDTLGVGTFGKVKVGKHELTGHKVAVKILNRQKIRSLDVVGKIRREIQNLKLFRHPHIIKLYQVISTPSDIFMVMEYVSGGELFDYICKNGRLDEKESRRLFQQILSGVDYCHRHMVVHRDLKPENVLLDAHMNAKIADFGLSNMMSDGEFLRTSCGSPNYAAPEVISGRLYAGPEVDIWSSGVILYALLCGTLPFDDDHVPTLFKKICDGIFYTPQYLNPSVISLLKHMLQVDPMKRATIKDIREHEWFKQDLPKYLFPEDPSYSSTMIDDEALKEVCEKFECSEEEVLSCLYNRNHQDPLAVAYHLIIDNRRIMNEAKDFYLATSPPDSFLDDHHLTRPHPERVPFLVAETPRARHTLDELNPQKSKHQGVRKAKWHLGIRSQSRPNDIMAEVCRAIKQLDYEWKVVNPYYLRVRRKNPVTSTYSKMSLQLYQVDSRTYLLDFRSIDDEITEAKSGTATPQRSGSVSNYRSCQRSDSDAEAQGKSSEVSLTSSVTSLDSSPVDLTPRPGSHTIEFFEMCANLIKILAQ
T3 sequence (Q9Y478 whole entry partner): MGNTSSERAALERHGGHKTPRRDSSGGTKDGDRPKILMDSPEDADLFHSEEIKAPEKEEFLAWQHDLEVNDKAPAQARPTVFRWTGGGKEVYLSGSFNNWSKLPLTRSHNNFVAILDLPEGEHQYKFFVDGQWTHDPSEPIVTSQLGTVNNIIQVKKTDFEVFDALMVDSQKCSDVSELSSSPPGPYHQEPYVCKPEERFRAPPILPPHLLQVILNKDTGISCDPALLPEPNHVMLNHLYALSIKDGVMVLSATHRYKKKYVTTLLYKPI
T3 sequence (Q9UGI9 whole entry partner): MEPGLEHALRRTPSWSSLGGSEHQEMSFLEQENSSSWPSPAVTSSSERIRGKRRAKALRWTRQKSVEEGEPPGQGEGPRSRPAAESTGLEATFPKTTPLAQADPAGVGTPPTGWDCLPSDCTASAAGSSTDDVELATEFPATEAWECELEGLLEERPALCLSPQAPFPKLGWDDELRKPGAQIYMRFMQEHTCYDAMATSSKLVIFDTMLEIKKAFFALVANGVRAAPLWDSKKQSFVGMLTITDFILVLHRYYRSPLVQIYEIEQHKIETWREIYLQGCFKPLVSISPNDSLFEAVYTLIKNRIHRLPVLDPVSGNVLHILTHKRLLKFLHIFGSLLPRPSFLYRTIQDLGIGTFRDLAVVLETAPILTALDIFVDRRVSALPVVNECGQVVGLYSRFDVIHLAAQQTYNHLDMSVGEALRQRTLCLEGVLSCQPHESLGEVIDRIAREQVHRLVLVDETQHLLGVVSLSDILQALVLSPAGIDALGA
Put plainly: Kinase panel assay (radiolabelled). The format is biochemical. The following applies: 30 μM compound, ATP 10 μM; duplicates Data 1/Data 2; read-out: % Enzyme Activity (relative to DMSO controls).

A further data set deals with T4, PI4Kb (Homo sapiens, UniProt Q9UBF8).
T4 construct: purchased Reaction Biology Corp
T4 sequence (Q9UBF8 whole entry): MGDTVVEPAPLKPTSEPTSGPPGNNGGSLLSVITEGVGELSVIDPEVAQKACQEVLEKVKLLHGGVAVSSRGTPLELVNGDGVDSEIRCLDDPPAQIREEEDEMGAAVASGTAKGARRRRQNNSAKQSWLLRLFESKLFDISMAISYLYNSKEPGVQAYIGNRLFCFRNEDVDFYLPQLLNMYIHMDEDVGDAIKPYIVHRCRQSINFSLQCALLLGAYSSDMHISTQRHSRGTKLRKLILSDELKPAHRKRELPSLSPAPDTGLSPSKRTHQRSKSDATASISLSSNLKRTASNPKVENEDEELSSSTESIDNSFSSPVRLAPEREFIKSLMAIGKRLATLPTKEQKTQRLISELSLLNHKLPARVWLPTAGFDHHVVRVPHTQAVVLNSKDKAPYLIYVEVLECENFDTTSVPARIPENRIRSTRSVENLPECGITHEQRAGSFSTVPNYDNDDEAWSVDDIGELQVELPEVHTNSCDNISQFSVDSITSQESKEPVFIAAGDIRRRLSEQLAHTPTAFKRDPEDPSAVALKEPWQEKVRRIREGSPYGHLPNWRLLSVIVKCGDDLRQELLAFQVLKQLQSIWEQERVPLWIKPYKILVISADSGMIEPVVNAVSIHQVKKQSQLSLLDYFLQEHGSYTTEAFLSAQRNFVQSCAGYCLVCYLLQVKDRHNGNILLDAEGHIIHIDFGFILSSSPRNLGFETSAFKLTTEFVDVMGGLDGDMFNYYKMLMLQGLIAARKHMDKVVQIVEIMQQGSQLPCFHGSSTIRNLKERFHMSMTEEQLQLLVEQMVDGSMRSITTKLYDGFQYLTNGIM
Put plainly: Kinase panel assay (lipid kinase). The format is biochemical. To be noted: 30 μM compound, ATP 10 μM, duplicates Data 1/Data 2.

Another data set is described as follows: MTT cell viability assay. The format is cell-based, murine. To be noted: mouse, BV-2 microglia cells (LPS-activated), mean ± SD. As for the experimental part: as §1
Another data set deals with T5, PI3K (p110a(E542K)/p85a) (Homo sapiens, UniProt P42336, E542K).
T5 construct: purchased Reaction Biology Corp
T5 sequence (P42336 whole entry E542K): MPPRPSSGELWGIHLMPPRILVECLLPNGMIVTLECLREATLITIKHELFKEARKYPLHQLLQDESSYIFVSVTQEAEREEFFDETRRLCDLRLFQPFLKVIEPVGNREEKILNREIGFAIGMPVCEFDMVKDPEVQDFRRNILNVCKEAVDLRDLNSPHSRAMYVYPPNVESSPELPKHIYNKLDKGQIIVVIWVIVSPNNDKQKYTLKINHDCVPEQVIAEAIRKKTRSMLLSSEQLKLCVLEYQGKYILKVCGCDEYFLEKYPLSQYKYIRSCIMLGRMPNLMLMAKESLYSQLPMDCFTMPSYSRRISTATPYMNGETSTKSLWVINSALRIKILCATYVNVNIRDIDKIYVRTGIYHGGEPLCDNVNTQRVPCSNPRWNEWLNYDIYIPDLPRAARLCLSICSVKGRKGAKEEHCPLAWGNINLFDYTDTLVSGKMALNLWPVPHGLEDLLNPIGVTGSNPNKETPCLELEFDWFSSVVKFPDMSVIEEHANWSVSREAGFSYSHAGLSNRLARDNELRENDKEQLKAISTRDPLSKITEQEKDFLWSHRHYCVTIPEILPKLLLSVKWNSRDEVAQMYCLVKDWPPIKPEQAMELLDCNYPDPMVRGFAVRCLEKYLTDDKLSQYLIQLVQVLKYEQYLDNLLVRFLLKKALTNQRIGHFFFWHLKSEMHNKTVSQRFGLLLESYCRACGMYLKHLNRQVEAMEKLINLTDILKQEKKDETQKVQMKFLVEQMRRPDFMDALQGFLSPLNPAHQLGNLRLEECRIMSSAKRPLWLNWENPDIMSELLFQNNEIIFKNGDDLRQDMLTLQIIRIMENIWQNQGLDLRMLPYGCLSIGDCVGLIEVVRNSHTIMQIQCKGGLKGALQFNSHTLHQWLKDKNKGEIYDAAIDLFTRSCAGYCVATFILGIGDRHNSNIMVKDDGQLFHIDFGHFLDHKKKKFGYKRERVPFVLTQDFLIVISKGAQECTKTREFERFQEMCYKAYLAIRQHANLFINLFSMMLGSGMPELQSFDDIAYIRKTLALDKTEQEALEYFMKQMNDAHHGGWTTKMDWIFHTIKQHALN
T5 sequence (P27986 whole entry partner): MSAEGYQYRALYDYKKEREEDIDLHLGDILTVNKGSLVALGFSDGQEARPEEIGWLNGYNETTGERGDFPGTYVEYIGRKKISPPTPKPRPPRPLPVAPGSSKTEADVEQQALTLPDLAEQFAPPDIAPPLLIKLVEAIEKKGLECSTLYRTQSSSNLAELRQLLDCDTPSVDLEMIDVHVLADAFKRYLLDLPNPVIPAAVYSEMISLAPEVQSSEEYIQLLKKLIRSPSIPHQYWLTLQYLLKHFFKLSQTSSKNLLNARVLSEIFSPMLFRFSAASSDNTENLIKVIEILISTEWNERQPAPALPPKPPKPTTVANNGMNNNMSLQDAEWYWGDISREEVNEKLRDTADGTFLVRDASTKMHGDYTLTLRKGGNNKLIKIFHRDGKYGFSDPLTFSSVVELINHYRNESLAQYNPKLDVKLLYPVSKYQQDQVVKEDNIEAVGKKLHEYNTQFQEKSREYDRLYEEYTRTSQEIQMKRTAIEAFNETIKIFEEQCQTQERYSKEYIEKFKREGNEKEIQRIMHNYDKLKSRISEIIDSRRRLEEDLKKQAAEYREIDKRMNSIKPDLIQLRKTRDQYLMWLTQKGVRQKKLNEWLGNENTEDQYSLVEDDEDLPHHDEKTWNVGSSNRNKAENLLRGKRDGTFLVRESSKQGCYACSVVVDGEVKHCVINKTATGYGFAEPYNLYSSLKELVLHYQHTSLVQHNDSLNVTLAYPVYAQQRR
As to the kind of experiment: Kinase panel assay (lipid kinase). Type of data set: biochemical. To be noted: 30 μM compound, ATP 10 μM, duplicates Data 1/Data 2.

The target in another data set is T6, P38b/MAPK11 (Homo sapiens, UniProt Q15759).
T6 construct: purchased Reaction Biology Corp
T6 sequence (Q15759 whole entry): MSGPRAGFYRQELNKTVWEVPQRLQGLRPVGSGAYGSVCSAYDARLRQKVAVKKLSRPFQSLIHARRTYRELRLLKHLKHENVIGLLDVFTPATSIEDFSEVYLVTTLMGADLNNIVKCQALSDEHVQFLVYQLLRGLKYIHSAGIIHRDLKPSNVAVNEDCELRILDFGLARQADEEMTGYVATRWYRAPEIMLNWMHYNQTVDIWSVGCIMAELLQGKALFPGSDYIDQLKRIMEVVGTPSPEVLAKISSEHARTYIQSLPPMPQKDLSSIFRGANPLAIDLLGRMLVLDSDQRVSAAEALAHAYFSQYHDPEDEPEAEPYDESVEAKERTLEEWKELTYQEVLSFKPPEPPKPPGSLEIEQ
Put plainly: Kinase panel assay (radiolabelled). Type of data set: biochemical. The following applies: ATP 10 μM.

For the next data set, the system named is PGE2. Put plainly: Secreted PGE2 immunoassay in LPS-induced BV-2 cells. Type of data set: cell-based, murine. Here is the method: To evaluate the secreted level of Prostaglandin E2 (PGE2), Tumor necrosis factor (TNF-α), Interleukin (IL-6), Interleukin (IL-1β), BV2 cells were seeded in a 6 well plate at the density of 1.5 × 10^6 cells/well in DMEM and incubated for 24 h. Seeded cells sere pretreated and, activated with LPS for next 24 h. conditioned medium from treated cells were collected and stored at -80 degree for longer period of time. The amount of TNF-α, IL-1β, PGE2,and IL-6 were evaluated using the competitive enzyme immunoassay kit. PGE2 kit were obtained from (Cayman Chemical, Ann Arbor, MI, USA) and TNF-α, IL-1β, and IL-6 were measured using ELISA development kits (R&D Systems, Minneapolis, MN, USA). All the protocol was exactly followed as written in the manual.

Setting [3] is: read-out: % Enzyme Activity (relative to DMSO controls).

Read-outs that look alike come from different tables or passages of the source.

T2 sequence (Q13131 whole entry): as the sequence (Q13131 whole entry) above
T2 sequence (Q9Y478 whole entry partner): as the sequence (Q9Y478 whole entry partner) above
T2 sequence (Q9UGI9 whole entry partner): as the sequence (Q9UGI9 whole entry partner) above

On to `O=C1C=CC2(C=C1)OCC(Cc1cc(C(F)(F)F)cc(C(F)(F)F)c1)C(=O)N2c1ccccc1` (racemic) [1c], for which, in the data set with BV-2 cells, the “Cell Viability (%)” value is given as 92 ± 13%. Moreover, on RIPK5, the “% Residual Activity at 30 μM” value was 59.3 ± 1.0%.

Turning to `O=C1C=CC2(C=C1)OCC(Cc1cn(-c3cccc(Cl)c3)nn1)C(=O)N2c1ccccc1` (centres unmarked) [2d, 3-((1-(3-Chlorophenyl)-1H-1,2,3-triazol-4-yl)methyl)-5-phenyl-1-oxa-5-azaspiro[5.5]undeca-7,10-diene-4,9-dione], the “% Enzyme Activity (relative to DMSO controls)” value was found to be 100.85% at AMPK(A1/B1/G3) [1]; 81.00% on PI4Kb; 100.20% at PI3K (p110a(E542K)/p85a); 109.52% on P38b/MAPK11 (30 μM compound, duplicates Data 1/Data 2). The remaining activity at 30 µM was determined as 101% at AMPK(A1/B1/G3) [2]; 81.6% at PI4Kb (setting [3]); 103% on PI3K (p110a(E542K)/p85a) (setting [3]); 110% on P38b/MAPK11 (30 μM compound, duplicates Data 1/Data 2, read-out: % Enzyme Activity (relative to DMSO controls)); 109.9 ± 0.5% at P38b/MAPK11 (30 μM, average ± SD, read-out: % Residual Activity at 30 μM). Moreover, the viability at 24 h, 1 µM in the data set “MTT cell viability assay” (1 μM compound) was 112 ± 19.8%. Further, the viability at 24 h, 5 µM in “MTT cell viability assay” (5 μM compound, % of LPS) came to 90 ± 6%. The “secreted level of PGE2” value in the data set on PGE2 is recorded as “concentration-dependent manner”.
